Assay results taken from patent US7629318B2, “Immunosuppressant compounds, methods and uses related thereto” (priority 2002, dated 2009).
“And” between values parts separate entries of the source, which are not always exact repeats. Equal values may be shown once. Numbered stars: 1 amine (or outer) side, 2 acyl side, 3 side chain; on linkers, the order of the positions; unused ones are H or OH. Square brackets hold non-standard residues; d marks the D form. Peptide text beside a SMILES is read from it. ξ: configuration not given here. Gly(1-amidinopiperidin-4-yl) = N=C(N)N1CCC([C@H](N)C(=O)O)CC1; X1 = CC(C)c1oc([C@H](CO)N[*:1])nc1C(=O)[*:2]; Pro(3R-Ph) = O=C(O)[C@H]1NCC[C@@H]1c1ccccc1; Met(O) = CS(=O)CC[C@H](N)C(=O)O; Tic = O=C(O)[C@@H]1Cc2ccccc2CN1; Cha = N[C@@H](CC1CCCCC1)C(=O)O; ξDisc = O=C(O)C1NCc2ccccc21

Columns and labels:
[1] = target: DR1 (DRA1*0101 DRB1*0101) (Homo sapiens, UniProt P01903+P01911, A100R/D57E/F55L/F60I/F76Y/I96L/L162R/M171V/P40L/Q125E/R42F/V115G/Y59C); assay: Competitive binding to MHC-II protein DR1; settings: Protein binding IC50 (nM) 0101, 0101
Summary of the method: (§1)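 Each MHC-II allele incubated with compound 16 hours at room temperature in duplicate; controls lacked compound, or both compound and MHC-II. Complexes captured 2 h at 4 °C, bound biotinylated peptide detected via europium-streptavidin and DELFIA enhancement, time-resolved fluorescence read at ex 340/em 613 (615) nm.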

[2] = target: DR4Dw14 (DRA1*0101 DRB1*0404) (Homo sapiens, UniProt P01903+P01911, A100R/A169T/F76Y/I96L/K127E/L162R/M171V/N62H/P40V/Q125Y/R42H/S133A/S149N/S66Y/V209L/W38E); assay: Competitive binding to MHC-II protein DR4Dw14; settings: 0404; read-out: Protein binding IC50 (nM) 0404
Summary of the method: as §1

[3] = Stability of compounds in mouse blood plasma; format: in vitro ADME
Summary of the method: (§2)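 Compounds at 5 μM final in rat, mouse or human plasma, incubated at 37 °C and sampled at 0, 6 and 24 h. Proteins precipitated with acetonitrile and the supernatant dried and reconstituted in 50% acetonitrile/0.1% TFA. PBS controls run for unstable compounds.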

[4] = target: T1, LG2 (DR1: DRA1*0101 DRB1*0101) cells (Homo sapiens, UniProt P01903+P01911, A100R/D57E/F55L/F60I/F76Y/I96L/L162R/M171V/P40L/Q125E/R42F/V115G/Y59C); assay: Competitive binding to MHC II proteins expressed on LG2 cells; format: cell-based; settings: Cell binding IC50 (uM) LG2 (0101), LG2 (0101)
T1 construct: MHC II Proteins Expressed on PRIESS and LG2 Cells; endogenous in cells; host or cells: LG2 cells
Procedure: (§3) For use in the binding assay the cells were re-suspended in medium containing 1% FCS at a density of 2.5×10^6 cells/ml.
(§4) The assay was performed in sterile 96 well polystyrene microtiter plates. A 10 fold dilution series of compounds (16 nM-1615 μM) in 1% FCS was prepared from 5 or 10 mM compound stock solutions in 10% DMSO/water. 50 μl of each compound dilution were added in duplicates to 50 μl of a 16 μM solution of indicator peptide in 1% FCS. Cell binding was initiated by adding 100 μl of 2.5×10^6 cells/ml 1% FCS to each well. Controls were included containing the DMSO concentration present in the solution with the highest compound concentration. The cells were incubated at 37° C., 6% CO2. After 4 hours the cells were washed with 200 μl PBS and lysed in 200 μl lysis buffer (50 mM sodium phosphate, 150 mM sodium chloride, 1% (w/v) NP-40, 25 mM iodoacetamide, 1 mM PMSF, 3.1% protease inhibitor cocktail: 0.32 g/l of Chymostatin, Antipain, Pepstatin A, Soybean trypsin inhibitor and Leupeptin each, pH 7.5) for 10 min.
(§5) After washing with PBS, 190 μl of cell lysate were transferred to the appropriate wells of the capture plate and incubated for 2 h at 4° C. The wells were washed six times with 200 μl/well cooled (4 to 8° C.) of 1×DELFIA wash (Wallac-ADL-GmbH, Freiburg), incubated with 100 μl of cooled Europium-streptavidin conjugate (Wallac-ADL-GmbH, Freiburg; diluted 1/1000 with DELFIA assay buffer) for 30 minutes at 4° C., again washed six times with cooled 1×DELFIA wash and, finally, incubated with 200 μl cooled DELFIA enhancement solution (Wallac-ADL-GmbH, Freiburg) for one hour at room temperature before reading the time-resolved europium fluorescence at λex Eu^3+: 340 nm and λem Eu^3+: 613 (615) nm (Wallac Victor^2 1420 Multilabel Counter, Wallac-ADL-GmbH, Freiburg).

[5] = Stability of compounds in rat blood plasma; format: in vitro ADME
Summary of the method: as §2

[6] = target: DR4Dw4 (DRA1*0101 DRB1*0401) (Homo sapiens, UniProt P01903+P01911, A100K/A169T/F76Y/I96L/K127E/L162R/M171V/N62H/P40V/Q125Y/R42H/S133A/S149N/S66Y/V115G/V209L/W38E); assay: Competitive binding to MHC-II protein DR4Dw4
Summary of the method: as §1

[7] = target: Cathepsin D (EC 3.4.23.5 from bovine spleen) (Bos taurus, UniProt P80209)
[8] = target: Cathepsin B1 (EC 3.4.22.1 from bovine spleen) (Bos taurus, UniProt P07688); settings: Cathepsin B, 4 h
[9] = target: T2, Priess (DR4Dw4: DRA1*0101 DRB1*0401) cells (Homo sapiens, UniProt P01903+P01911, A100K/A169T/F76Y/I96L/K127E/L162R/M171V/N62H/P40V/Q125Y/R42H/S133A/S149N/S66Y/V115G/V209L/W38E); assay: Competitive binding to MHC II proteins expressed on Priess cells; format: cell-based
T2 construct: MHC II Proteins Expressed on PRIESS and LG2 Cells; endogenous in cells; host or cells: Priess cells
Procedure: as §3, §4, §5

[10] = Stability of compounds in human blood plasma; format: in vitro ADME
Summary of the method: as §2

[11] = system: T-cell proliferation, DR14-LN

SMILES | IC50 [1] [nM] | IC50 [2] | Stability (Arbitrary units) Mouse 6 h [3] [Arbitrary units] | Stability (Arbitrary units) Mouse 24 h [3] [Arbitrary units] | IC50 [4] [µM] | Stability (Arbitrary units) Rat 6 h [5] [Arbitrary units] | Stability (Arbitrary units) Rat 24 h [5] [Arbitrary units] | IC50 [6] [nM] | Stability (Arbitrary units) Cath D 4 h [7] [Arbitrary units] | Stability (Arbitrary units) Cath B 4 h [8] [Arbitrary units] | IC50 [9] [nM] | Stability (Arbitrary units) Human 6 h [10] [Arbitrary units] | Stability (Arbitrary units) Human 24 h [10] [Arbitrary units] | Immunsupressive assays DR14-LN (Max) % Inhibition ([11]; maximal inhibition) [%] | IC50 ([11]; read-out: Immunsupressive assays DR14-LN (IC50)) [nM]
CSCC[C@H](NC(=O)[C@@H]1Cc2ccccc2CN1C(=O)[C@@H](NC(=O)[C@H](CC1CCCCC1)NC(C)=O)C1CCN(C(=N)N)CC1)C(N)=O [Compound P67, Ac-Cha-Gpg-Tic-Met-NH2] (Ac-[Cha][Gly(1-amidinopiperidin-4-yl)][Tic]M-NH2) | 120 | 1060 nM and 1080 nM | 71 | 16 | 4.5 | 10 | 34 | 410 | 113 | 58 | 4500 | 97 | 100 | – | –
CSCC[C@H](NC(=O)C1c2ccccc2CN1C(=O)[C@H](CCCNC(=N)N)NC(=O)[C@H](CC1CCCCC1)NC(C)=O)C(=O)N1CC[C@H](c2ccccc2)[C@H]1C(=O)N[C@@H](CO)c1nc(C(=O)N(C)C)c(C(C)C)o1 (stereo partly drawn) [Compound P40-1, Ac-Cha-Arg-Disc-Met-βPhPro-[S(oxaz)L]NMe2] (Ac-[Cha]R[ξDisc]M[Pro(3R-Ph)][X1]-NMe2) | 140 | 98 nM | – | – | 8 | 111 | 71 | 270 | 93 | 99 | 3000 | 108 | 103 | – | –
CSCC[C@H](NC(=O)[C@@H]1Cc2ccccc2CN1C(=O)[C@@H](NC(=O)[C@H](CC1CCCCC1)NC(C)=O)C1CCN(C(=N)N)CC1)C(=O)N1CC[C@H](c2ccccc2)[C@H]1C(N)=O [Compound P80, Ac-Cha-Gpg-Tic-Met-βPhProNH2] (Ac-[Cha][Gly(1-amidinopiperidin-4-yl)][Tic]M[Pro(3R-Ph)]-NH2) | 550 | 470 nM | 106 | 123 | 2.7 | 102 | 39 | 670 | 84 | 90 | 2700 | 139 | 134 | 88 | 94000
CC(=O)N[C@@H](CC1CCCCC1)C(=O)N[C@@H](CCCNC(=N)N)C(=O)N1Cc2ccccc2C[C@H]1C(=O)N[C@@H](CC[S+](C)[O-])C(=O)N1CC[C@H](c2ccccc2)[C@H]1C(=O)N[C@@H](CO)c1nc(C(=O)N(C)C)c(C(C)C)o1 (stereo partly drawn) [Compound P43, Ac-Cha-Arg-Tic-Met(O)-βPhPro-[S(oxaz)L]-NMe2] (Ac-[Cha]R[Tic][Met(O)][Pro(3R-Ph)][X1]-NMe2) | 380 | 1700 nM | 96 | 82 | 13 | 96 | 71 | 320 | 101 | 96 | 3100 | 134 | 131 | – | –
